Measurements reported in US20250109343A1, “CORROSION INHIBITOR” (INNOSPEC LIMITED, priority 2022, published 2025).

Key:
[1] = Linear Polarisation Resistance (LPR) Test, Example 30, synthetic brine composition 1 or 2
[2] = LPR test of Example 31, variety of brines and brine/depolarised kerosene fluids
Protocol: The LPR test was carried out using the corrosion inhibitor of Example 1. The LPR test was carried out using the same conditions as the LPR test of Example 30 except for the composition of the corrosive fluid, the temperature, and the dose of the corrosion inhibitor.

[3] = brine composition 1, dose 40 ppm of product, one addition, time 19.9-20.1 hr, 60° C., constant CO2 sparge
[4] = Test 1: brine composition 1 (Table 6), 60 ° C., dose 50 ppm, 4 hours
[5] = Test 3: brine composition 3 and depolarised kerosene 90:10 volume ratio, 82 ° C., dose 60 ppm, 5 hours
[6] = Test 4: brine composition 4 and depolarised kerosene 90:10 volume ratio, 82 ° C., dose 60 ppm, 5 hours
[7] = Test 5: brine composition 5 and depolarised kerosene 90:10 volume ratio, 82 ° C., dose 60 ppm, 5 hours
[8] = Test 6: brine composition 6 and depolarised kerosene 90:10 volume ratio, 82 ° C., dose 60 ppm, 5 hours
[9] = brine composition 2, dose 40* ppm, four additions each of 10 ppm, time 25.3-28.8 hr, 60° C., constant CO2 sparge

Row | Substance | Corrosion protection [1] [%] | Corrosion rate [1] [mmpy] | also measured
1 | sodium diethanolamine dodecenylsuccinamide [Example 4] | 99 | 0.06 | –
2 | sodium dodecanol phthalate [Example 26] | 99 | – | –
3 | disodium 2-octen-1-ylsuccinate [Example 5] | – | – | Corrosion protection [1, 3]: 89%; Corrosion rate [1, 3]: 0.46 mmpy
4 | sodium furfuryl alcohol dodecenyl succinic anhydride [Example 28] | 99 | 0.04 | –
5 | sodium PEG200 2-octen-1-ylsuccinate [Example 1] | 99 | 0.03 | Corrosion protection [2, 4]: 96%; Corrosion rate [2, 4]: 0.1320 mmpy; Corrosion protection ([2]; Test 2: brine composition 2 (Table 6), 60 ° C., dose 50 ppm, 4 hours): 96%; Corrosion protection [2, 5]: 99%; Corrosion rate [2, 5]: 0.0358 mmpy; Corrosion protection [2, 6]: 98%; Corrosion rate [2, 6]: 0.0833 mmpy; Corrosion protection [2, 7]: 96%; Corrosion rate [2, 7]: 0.1387 mmpy; Corrosion protection [2, 8]: 95%; Corrosion rate [2, 8]: 0.1646 mmpy; Corrosion inhibition, result in words ([2]; variety of brines and brine/hydrocarbon emulsions): effective corrosion inhibitor
6 | potassium PEG200 2-octen-1-yI succinate [Example 21] | – | – | Corrosion protection [1, 9]: 59%; Corrosion rate [1, 9]: 2.24 mmpy
7 | triethanolamine PEG200 2-octen-1-yl succinate [Example 22] | 68 | 2.44 | –
8 | sodium benzyl alcohol dodecenyl succinate [Example 8] | 96 | 0.14 | –
9 | sodium 2-ethyl-1,3-hexanediol dodecenyl succinate [Example 9] | 51 | 2.02 | –
10 | sodium 1,6-hexanediol dodecenyl succinate [Example 15] | 41 | 1.68 | –
11 | sodium 3-dimethylaminopropylamine dodecenyl succinamide [Example 13] | 46 | 1.73 | –
12 | sodium 1-hexanol dodecenyl succinate [Example 10] | 92 | 0.29 | –
